Source: patent publication US20090306051A1, “Methods and compositions for the treatment of epilepsy, seizure disorders, and other CNS disorders” (priority 2004, published 2009)
Where two headings read alike, the source gives them in different places.

Assays:
[1] = cited from earlier work; for T½: as printed in head of release profile table, Example 3
[2] = FIG. 2A, IR administration (memantine 20 mg bid, lamotrigine 200 mg qd); cited from earlier work
[3] = Release profile (cumulative fraction released from formulation matrix to serum or gut environment); type: physicochemical
[4] = system: mouse electroshock model; test: Dose ranging study in seizure model (mouse electroshock model); type: in vivo; conditions: seizure model (e.g., mouse electroshock model)
Source text: An isobolic experiment ensues where the drugs are combined in fractions of their EDXXs to add up to ED100 (i.e., ED50:ED50, ED25:ED75, etc.). The plot of the data is constructed. The experiment points that lie below the straight line between the ED50 points on the graph are indicative of synergy, points on the line are indicative of additive effects, and points above the line are indicative of inhibitory effects. The point of maximum deviation from the isobolic line is the optimal ratio. This is the optimal steady state ratio (Cratio,ss) and is adjusted based upon the component half-lives. Similar protocols may be applied in a wide variety of validated animal models.

Row | SMILES | Human PK (t½) ([1]; humans) [h] | Tmax ([1]; humans) [h] | Tmax [2] [h] | T½ [2] [h] | T½ [1] | cum. fraction ([3]; Time 1) | cum. fraction ([3]; Time 2) | cum. fraction ([3]; Time 4) | cum. fraction ([3]; Time 8) | cum. fraction ([3]; Time 12) | cum. fraction ([3]; Time 16) | cum. fraction ([3]; Time 20) | cum. fraction ([3]; Time 24) | ED50 [4] | Human PK (t½) in hrs ([1]; humans) [hr for hrs]
1 | Nc1nnc(-c2cccc(Cl)c2Cl)c(N)n1 [Lamotrigine] | 12 | 2 | 2 | 12 |  |  |  |  |  |  |  |  |  |  | 
2 | NS(=O)(=O)Cc1noc2ccccc12 [Zonisamide] | 63 | 4 |  |  | ZONISAMIDE T½ = 60 hrs | 0.2 | 0.3 | 0.4 | 0.5 | 0.6 | 0.7 | 0.8 | 0.9 |  | 
3 | CC12CC3CC(C)(C1)CC(N)(C3)C2 [Memantine, 1-amino-3,5-dimethyladamantane] |  |  | 3 |  | MEMANTINE T½ = 60 hrs | 0.2 | 0.3 | 0.4 | 0.5 | 0.6 | 0.7 | 0.8 | 0.9 | approximately 12 μM | 
4 | NCC1(CC(=O)O)CCCCC1 [Gabapentin] | 6 | 3 |  |  |  |  |  |  |  |  |  |  |  |  | 
5 | NC(=O)N1c2ccccc2CC(=O)c2ccccc21 [Oxcarbazepine] |  | 4.5 |  |  |  |  |  |  |  |  |  |  |  |  | 2
6 | CC1(C)O[C@@H]2[C@@H](CO[C@@]3(COS(N)(=O)=O)OC(C)(C)O[C@@H]23)O1 [Topiramate] | 21 | 2 |  |  |  |  |  |  |  |  |  |  |  | approximately 5 μM | 
